Results from publication PMC10560666, “Four new triterpene saponins from Cephalaria speciosa and their potent cytotoxic and immunomodulatory activities” (Scientific Reports, 2023).
Marks after values point to notes of the source that are not given here.

Key:
[1] = tested on: THP-1 originated-macrophage; assay: MTT cytotoxicity on THP-1 originated macrophages; type: cell-based, human; details: mean ± standard deviation, n = 3, – = Not detected
[2] = tested on: CCD-34Lu normal human lung fibroblast cells; assay: MTT cytotoxicity on CCD-34Lu healthy cells; type: cell-based; details: 48 h, mean ± standard deviation, n = 3, – = Not detected
Procedure: (§1) The human leukemia monocyte cell line (THP-1), human lung adenocarcinoma cell line (A549), human breast cancer cells (MDA-MB231), human prostate adenocarcinoma cells (PC3), human malignant glioma cell line (U87MG), human cervical gland carcinoma cells (HeLa), human hepatocellular carcinoma cells (HEP-G2) and normal human lung fibroblast cells (CCD-34-LU) as a healthy cell line in our stock used in this study were purchased from American Type Culture Collection (ATCC). THP-1 cells were cultured in Roswell Park Memorial Institute (RPMI 1640) medium and MDA-MB231, PC3, U87 MG, HeLa, HEP-G2, and CCD-34-LU cells cultivated in Dulbecco’s Modified Eagle’s Medium/Nutrient Mixture F-12 (DMEM/F12) (Gibco, USA) medium supplemented with 10% FBS (Gibco, USA), 100U/mL of penicillin 100 µg/mL of streptomycin (Gibco, USA), and 2 mM L-glutamine (Gibco, USA).
(§2) Cytotoxicity of saponins (1–4) and their prosapogenins (2a–4a) were tested against A549, MDA-MB-231, PC-3, U87MG, HeLa, HepG-2 cancer cells and CCD34-Lu healthy cell line using MTT [3-(4,5-dimethylthiazole-2-yl)-2,5-diphenyltetrazolium bromide)] assay (Acros Organics, New Jersey, USA)[11], [23]. For this purpose, 1 × 10^5 cells/mL of all the cell lines were seeded in 96-well plates (Corning, USA) and cultivated in the at 37 °C overnight. After the incubation, the cells were incubated with different concentrations of saponins (50, 5, and 0.5 µg/mL), and doxorubicin (Sigma, USA) (20, 2, and 0.2 µg/mL) for 48 h at 37 °C. Then, the MTT was added as 20 μL (from the stock concentration of 2.5 mg/mL) to all wells and further incubated for 4 h at 37 °C. Following the incubation, the medium was removed and 150 µL DMSO was added to dissolve the formed formazan crystals. After the formazan crystals were completely dissolved, the optical density (OD) was measured at 570 nm with an UV/Vis microplate spectrophotometer (Thermo Fisher Scientific, USA). All data are the results of at least three independent experiments carried out in triplicate. Data are presented as mean ± standard error of the mean (SEM) of samples. The IC50 value was calculated using the GraphPad Prism 8 (USA) program based on the calculated percent viability values and absorbance values. The percentage of viability was determined by Eq. (1):1 %Viablecells=absorbanceoftreatedcells-absorbanceofblank/absorbanceofcontrol-absorbanceofblank×100

[3] = tested on: A549 human lung adenocarcinoma cell line; assay: MTT cytotoxicity on A549; type: cell-based; details: mean ± standard deviation, n = 3, – = Not detected
Procedure: as §1, §2

[4] = tested on: MDA-MB-231 human breast cancer cells; assay: MTT cytotoxicity on MDA-MB-231; type: cell-based; details: mean ± standard deviation, n = 3, – = Not detected
Procedure: as §1, §2

[5] = tested on: PC-3 human prostate adenocarcinoma cells; assay: MTT cytotoxicity on PC-3; type: cell-based; details: 48 h, mean ± standard deviation, n = 3, – = Not detected
Procedure: as §1, §2

[6] = tested on: U87MG human malignant glioma cell line; assay: MTT cytotoxicity on U87MG; type: cell-based; details: 48 h, mean ± standard deviation, n = 3, – = Not detected
Procedure: as §1, §2

[7] = tested on: HeLa human cervical gland carcinoma cells; assay: MTT cytotoxicity on HeLa; type: cell-based; details: 48 h, mean ± standard deviation, n = 3, – = Not detected
Procedure: as §1, §2

[8] = tested on: HepG-2 human hepatocellular carcinoma cells; assay: MTT cytotoxicity on HepG-2; type: cell-based; details: mean ± standard deviation, n = 3, – = Not detected
Procedure: as §1, §2

[9] = tested on: THP-1 derived macrophage cells; assay: Macrophage polarization by flow cytometry (CD11b, CD80, CD163 MFI); type: cell-based, human; details: saponin 3 µg/mL, 24 h, PMA-differentiated THP-1, mean ± SD, n = 3
Procedure: To differentiate THP-1 cells into M0-THP-1, cells were seeded at an initial concentration of 1 × 10^6 cells/mL in 6-well plates (Corning, USA) and treated with 15 ng/mL phorbol 12-myristate 13—acetate (PMA, Sigma USA). Then incubate at 5% CO2, 37 °C for 48 h[24]. To evaluate the potential of saponins with/without infectious bronchitis virus (IBV) D274 antigen on macrophage polarization, THP-1 cells were treated with saponins at 3 µg/mL and then incubated for 24 h with or without 4 µL of inactivated IBV D274 antigens (final titer of 1 HA). […] Based on the results of our previous research, the saponin concentration was selected as a non-cytotoxic concentration. At the end of the incubation period, the cells were collected by trypsinization and washed three times with PBS. Following, 1 µL of PE anti-human CD80 (Biolegend, CA), FITC anti-human CD163 (Biolegend, CA), and FITC anti-human CD11b (Biolegend, CA) antibodies were added into the cells pellet and incubated for 45 min at room temperature in the dark. The cells pellets underwent two PBS washes following incubation. Finally, the cells were subsequently analyzed by flow cytometry (BD Accuri, C5). 1 × 10^4 cells were counted for each sample group using flow cytometry. All data are the results of at least three independent experiments carried out in triplicate. Data are presented as mean ± standard error of the mean (SEM) of samples. The untreated stained macrophage cells with anti-human CD80, FITC anti-human CD163, and FITC anti-human CD11b were compared with the results of treated cells to obtain from M0 polarization to M1 and M2 or both.
Figure 2 (a) Saponins without antigen treatment, (b) Saponins treated with antigen. THP-1 cells were treated with 15 ng/ml PMA and 3 µg/ml saponins and 1 HA titer of IBV D274 induced in the saponins with antigen group for 24 h incubation. The macrophage polarization was determined with flow cytometry. Each value represents the mean ± standard deviation of three independents measurements. (P < 0.05*, P < 0.01**, P < 0.001***).

[10] = with inactivated IBV D274 antigen (1 HA)

C[C@@H]1O[C@@H](O[C@H]2[C@H](O[C@H]3CC[C@@]4(C)C(CC[C@]5(C)C4CC=C4C6CC(C)(C)CC[C@]6(C(=O)O)CC[C@]45C)[C@]3(C)CO)OC[C@@H](O)[C@@H]2O)[C@H](O)[C@H](O)[C@H]1O (stereo partly drawn) [Compound 3a, 3-O-α-L-rhamopyranosyl-(1 → 2)-β-D-xylopyranosyl hederagenin]
IC50, THP-1 originated-macrophage ([1]; 48 h): did not have a cytotoxic effect
IC50 ([1]; Homo sapiens, THP-1, 48 h): > 66.6 µM
IC50 ([2]; Homo sapiens, Fibroblast): > 66.6 µM
IC50 ([3]; Homo sapiens, A549, 48 h): > 66.6 µM
IC50 ([4]; Homo sapiens, MDA-MB-231, 48 h): > 66.6 µM
IC50 ([5]; Homo sapiens): > 66.6 µM
IC50 ([6]; Homo sapiens, U-87 MG): > 66.6 µM
IC50 ([7]; Homo sapiens, HeLa): > 66.6 µM
IC50 ([8]; Homo sapiens, HepG2, 48 h): > 66.6 µM
MFI of CD 11b (M0 marker) [9, 10]: 29,092.45 ± 852.78
MFI of CD80 (M1 marker) [9, 10]: 4911.00 ± 224.16
MFI of CD 11b (M0 marker) ([9]; without antigen): 29,092.75 ± 2580.19
MFI of CD80 (M1 marker) ([9]; without antigen): 4,248.00 ± 137.13
MFI of CD163 (M2 marker) ([9]; without antigen): 6,408.00 ± 195.24*

C[C@@H]1O[C@@H](O[C@H]2[C@H](O[C@H]3CC[C@@]4(C)[C@@H](CC[C@]5(C)[C@@H]4CC=C4[C@@H]6CC(C)(C)CC[C@]6(C(=O)O)CC[C@]45C)[C@]3(C)CO)O[C@H](CO)[C@H](O)[C@@H]2O)[C@H](O)[C@H](O)[C@H]1O [Compound 4a, 3-O-α-L-rhamopyranosyl-(1 → 2)-β-D-galactopyranosyl hederagenin]
IC50 ([1]; 48 h): 35.7 ± 4.9 µM
IC50 [2]: > 64 µM
IC50 ([3]; 48 h): 8.13 ± 0.01 µM
IC50 ([4]; 48 h): 8.43 ± 0.15 µM
IC50 [5]: > 64 µM
IC50 [6]: > 64 µM
IC50 [7]: 16.3 ± 4.75 µM
IC50 ([8]; 48 h): > 64 µM
MFI of CD 11b (M0 marker) [9, 10]: 30,124.70 ± 913.74
MFI of CD80 (M1 marker) [9, 10]: 4604.40 ± 128.49
MFI of CD 11b (M0 marker) ([9]; without antigen): 30,031.76 ± 1486.58
MFI of CD80 (M1 marker) ([9]; without antigen): 4,552.00 ± 947.76
